The record followed here is EP1100453B1, “COSMETIC FORMULATION CONTAINING ECTOINE DERIVATIVES, ENZYMES, VITAMINS AND/OR VITAMIN DERIVATIVES” (MERCK PATENT GmbH, priority 1998, dated 2000).

What all share (type): biochemical
For one test, the system named is Elastase. The test can be described thus: Enzyme stabilisation by Ectoin against temperature stress in vitro: elastase activity. The following applies: 30 min incubation, Ectoin 1 mol/l, enzyme 0,05 mg/ml, Tris-HCl pH 6,8, difference to enzyme without Ectoin (set to 100 %). The source says: (§1) Das Grundmedium für die Inkubation ist eine 0,25 molare Tris-HCl-Pufferlösung mit einem pH-Wert von 6,8.
(§2) Die Bestimmung der Enzymaktivität erfolgt • für Katalase nach der Methode von A. Claiborne [A. Claiborne 'Catalase Activity' in: R.A. Greenwald (Ed.), Handbook of Methods for Oxygen Radical Research, CRC Press, Boca Raton, FL. (1986) 283-284], • für Glutathionperoxidase nach der Methode von L. Flohé und W.A. Günzler [L. Flohé et al., Methods Enzymol. 105 (1989) 114-121], • für Superoxiddismutase nach der Methode von H.P. Nissen und H.W. Kreysel [H.W. Kreysel et al., 'Superoxide Dismutase in Human Semen, Klin. Wochenschr. 61 (1983) 63-65] und • für Elastase nach der Methode von L. Hornebeck und W. Hornebeck [W. Hornebeck et al., 'Characterisation of Human Skin Fibroblasts Elastase Activity', J. Invest. Dermatol. 91 (5) (1988) 472-477].
(§3) Die Ergebnisse sind für Katalase in Abb. 1, für Glutathionperoxidase in Abb. 2, für Superoxiddimutase in Abb. 3 und für Elastase in Abb. 4 dargestellt.

The test system of the next test is Superoxiddismutase. The test can be described thus: Enzyme stabilisation by Ectoin against temperature stress in vitro: superoxide dismutase activity. The following applies: 30 min incubation, Ectoin 1 mol/l, enzyme 0,05 mg/ml, Tris-HCl pH 6,8, difference to enzyme without Ectoin (set to 100 %).
Text: as §1, §2, §3

The next test has as its target T1, Katalase (Homo sapiens, UniProt P04040).
T1 sequence (P04040 1-527): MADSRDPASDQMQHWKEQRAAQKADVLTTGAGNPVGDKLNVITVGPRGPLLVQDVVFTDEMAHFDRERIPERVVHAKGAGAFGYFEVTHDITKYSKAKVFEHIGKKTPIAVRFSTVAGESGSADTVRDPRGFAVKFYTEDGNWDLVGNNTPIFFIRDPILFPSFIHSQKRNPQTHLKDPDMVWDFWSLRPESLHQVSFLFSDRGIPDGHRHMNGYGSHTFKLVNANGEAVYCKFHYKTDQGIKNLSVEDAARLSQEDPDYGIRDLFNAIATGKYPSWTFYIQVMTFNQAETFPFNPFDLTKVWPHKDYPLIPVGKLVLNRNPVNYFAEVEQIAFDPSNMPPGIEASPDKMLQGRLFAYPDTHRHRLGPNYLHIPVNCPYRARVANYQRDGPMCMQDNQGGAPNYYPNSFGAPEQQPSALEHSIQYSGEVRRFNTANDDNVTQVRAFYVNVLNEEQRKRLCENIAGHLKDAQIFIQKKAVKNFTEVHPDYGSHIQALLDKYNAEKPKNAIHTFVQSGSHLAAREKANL
The test is described as follows: Enzyme stabilisation by Ectoin against temperature stress in vitro: catalase activity. The following applies: for activation at 1 M: 0.5 h, read-out: Aktivität.
Text: as §1, §2, §3

A further test has as its system Glutathionperoxidase. The test is described as follows: Enzyme stabilisation by Ectoin against temperature stress in vitro: glutathione peroxidase activity. The following applies: 30 min incubation, Ectoin 1 mol/l, enzyme 0,05 mg/ml, Tris-HCl pH 6,8, difference to enzyme without Ectoin (set to 100 %).
Text: as §1, §2, §3

Read-outs that look alike come from different tables or passages of the source.

Turning to `CC1=N[C@H](C(=O)O)CCN1` [Ectoin, (S)-1,4,5,6-Tetrahydro-2-methyl-4-pyrimidincarbonsäure], the Aktivität in the test with Elastase (30 °C) is recorded as 4,0%; in the test with Elastase (40 °C), 15,0%; in the test on Elastase (50 °C) it was 25,7%; in the test on Superoxiddismutase (20 °C), 4,9%; with Superoxiddismutase (40 °C), 14,4%; with Superoxiddismutase (50 °C), 17,4%. Besides, the Aktivität on Katalase (50 °C, 30 min incubation, Ectoin 1 mol/l, enzyme 0,05 mg/ml, Tris-HCl pH 6,8, difference to enzyme without Ectoin (set to 100 %)) is 117,9%; with Glutathionperoxidase (20 °C), 3,5%; in the test on Glutathionperoxidase (30 °C), 1,4%; in the test on Glutathionperoxidase (40 °C), 20,8%; in the test on Glutathionperoxidase (50 °C), 39,6%. For the same compound, the “Aktivität von mit Ectoin behandelter Katalase relativ zu nicht mit Ectoin behandelter Katalase” value at Katalase (50 °C incubation, ratio of activity with Ectoin to activity without Ectoin) was “mehr als doppelt so aktiv”. In addition, the activation at 1 M is 2.5% at Katalase (pH 6, 20 °C, 30 min incubation, Ectoin 1 mol/l, enzyme 0,05 mg/ml, Tris-HCl pH 6,8, difference to enzyme without Ectoin (set to 100 %)); 10.4% on Katalase (pH 6, 30 °C, 30 min incubation, Ectoin 1 mol/l, enzyme 0,05 mg/ml, Tris-HCl pH 6,8, difference to enzyme without Ectoin (set to 100 %)); approximately 25% on Katalase (pH 6, 40 °C, 30 min incubation, Ectoin 1 mol/l, enzyme 0,05 mg/ml, Tris-HCl pH 6,8, difference to enzyme without Ectoin (set to 100 %)); approximately 120% at Katalase (pH 6, 50 °C, 30 min incubation, Ectoin 1 mol/l, enzyme 0,05 mg/ml, Tris-HCl pH 6,8, difference to enzyme without Ectoin (set to 100 %)).
